Data as given in patent US11965886B2, “Method of immobilizing a cell on a support using compounds comprising a polyethylene glycol moiety” (Roche Diagnostics Operations, Inc., priority 2013, dated 2024).
Where “and” joins values, the source holds several entries; their conditions need not be identical. Equal entries are not always repeated. Where two headings read alike, the source gives them in different places.

What was measured:
WBCs [1] = assay: Immobilization of cells: recovery rate of cells on SA (streptavidin) plate or untreated plate (Example 3); assay type: cell-based
Description: The following applies for modular description of the compounds below: X=hydrophobic moiety, […]=fluorescein In the following experiment, the recovery rate of cells was determined.

white blood cells (WBCs) = system: white blood cells (WBCs)
Description: In particular, the performance of a single cholesterol-molecule and different dual-linker molecules (i.e. containing two hydrophobic moieties) was tested. In detail, immobilization of white blood cells (WBCs) on a Streptavidin-coated surface using different linker molecules was tested on a 12-well plate: 300 000 WBCs/well. This was followed by the measurement of the cell recovery rate after immobilization and washing of the cells using the Cellavista instrument (10× Nuclei Operator s9s5).

Epithelial cells = assay: Labelling of cells using compounds (staining/uptake); assay type: cell-based
From the text: (§1) 2. Labelling of Cells Using Compounds Useful in Methods of the Invention

MDA-MB468 = assay: as above; assay type: cell-based
From the text: as §1

U937 = assay: as above; assay type: cell-based
From the text: as §1

WBCs [2] = assay: as above; assay type: cell-based
From the text: as §1

WBC = WBC recovery rate after centrifugation (cell stabilization, Example 5); assay type: cell-based; conditions: 300×g; for WBC recovery rate after centrifugation at different points of time, dependence on concentration: 0.35 nmol molecule A, 100 nmol and 0.5 nmol molecule B
Description: A) WBC Recovery Rate after Centrifugation and Cell Immobilization Using Different Molecules
Centrifugation characteristics: 10 min, 300×g.
B) WBC Recovery Rate after Centrifugation Using Different Compounds—Different Points of Time
Centrifugation characteristics: 10 min, 300×g. A: Choleseryl-TEG-Cholesteryl-TEG-(SpacerC18)7-Fluos-Biotin-TEG.
C) WBC Recovery Rate after Centrifugation—Different Experimenters
Centrifugation characteristics: 10 min, 300×g. Molecule: Cholesteryl-TEG-Cholesteryl-TEG-(SpacerC18)7-Fluos-Biotin-TEG.
D) WBC Recovery Rate after Centrifugation—Different Points of Time and Centrifugation Settings
Centrifugation characteristics: 20 min, 300×g.

Hela = assay: Labelling of cells using compounds (staining/uptake); assay type: cell-based
From the text: as §1

[3] = Sample 1, first block (concentration not given), 300 000 WBCs/well
[4] = Sample 1, compound concentration: 1 nmol/10e6 WBCs
[5] = Sample 1, compound concentration: 1 nmol/10e6 WBCs, 300 000 WBCs/well
[6] = Sample 2, compound concentration: 100 pmol/10e6 WBCs
[7] = Sample 2, compound concentration: 100 pmol/10e6 WBCs, 300 000 WBCs/well
[8] = Sample 2, compound concentration: 1 nmol/10e6 WBCs
[9] = Sample 2, compound concentration: 1 nmol/10e6 WBCs, 300 000 WBCs/well
[10] = cells treated with compound, streptavidin plate, repeated experiments

CCCCCCCC/C=C\CCCCCCCC(=O)OC[C@H](COP(=O)([O-])OCCNC(=O)CCCCCNC(=O)CCCC[C@@H]1SC[C@@H]2NC(=O)N[C@@H]21)OC(=O)CCCCCCC/C=C\CCCCCCCC.[Na+]
Recovery Rate (WBCs [1]; 10 pmol/10e6 cells): 66.30% and 74.40%
Recovery Rate (WBCs [1]; 500 pmol/10e6 cells): 80.16% and 95.94%
Recovery Rate (WBCs [1]; 1 nmol/10e6 cells): 95.80% and 101.76%
Recovery Rate (WBCs [1]; 10 nmol/10e6 cells): 89.19% and 105.12%

CCCCCCCCCCCCCCCC(=O)OC[C@H](COP(=O)([O-])OCCNC(=O)CCCCCNC(=O)CCCC[C@@H]1SC[C@@H]2NC(=O)N[C@@H]21)OC(=O)CCCCCCCCCCCCCCC.[Na+]
Recovery Rate (WBCs [1]; 10 pmol/10e6 cells): 54.30% and 45.40%
Recovery Rate (WBCs [1]; 100 pmol/10e6 cells): 72.20% and 86.10%
Recovery Rate (WBCs [1]; 300 pmol/10e6 cells): 51.80% and 55.90% and 52.60% and 73.07% and 61.27% and 71.40%
Recovery Rate (WBCs [1]; 1 nmol/10e6 cells): 84.90% and 89.30%

5′-(Cholesterol-TEG)1-Doubler-dT-Biotin-3′ [29.891272]
Recovery Rate (WBCs [1]; 10 pmol/10e6 cells): 65.03%
Recovery Rate (WBCs [1]; 100 pmol/10e6 cells): 83.08% and 56.49% and 62.11% and 82.01%
Recovery Rate (WBCs [1]; 1 nmol/10e6 cells): 87.93% and 72.13% and 82.47%
Recovery Rate (WBCs [1]; 10 nmol/10e6 cells): Cells lysed
Recovery Rate (white blood cells (WBCs); [3]): 56.49%
cells counted per well (white blood cells (WBCs); [3]): 147132 and 179643 and 181620
Recovery Rate (white blood cells (WBCs); [4]): 72.13%
cells counted per well (white blood cells (WBCs); [5]): 199973 and 220701 and 228481
Mean (cells counted per well) (white blood cells (WBCs); [6]): 186316.33
Recovery Rate (white blood cells (WBCs); [6]): 62.11%
cells counted per well (white blood cells (WBCs); [7]): 161504 and 201424 and 196021
Mean (cells counted per well) (white blood cells (WBCs); [8]): 247418.33
Recovery Rate (white blood cells (WBCs); [8]): 82.47%
cells counted per well (white blood cells (WBCs); [9]): 241232 and 254894 and 246129
cell immobilization characteristics, mono linker vs dual linker (white blood cells (WBCs); conclusion of Example 4): shows similar cell immobilization characteristics compared dual linker molecules

5′-(Cholesteryl-TEG)2-PEG2000-Fluos-Biotin_TEG-3′ INVERS [29.891250]
Recovery Rate (WBCs [1]; 100 pmol/10e6 cells): 48.66%
Recovery Rate (WBCs [1]; 1 nmol/10e6 cells): 81.29%

5′-(Cholesteryl-TEG)2-Spacer C12-dT-Biotin_TEG-3′ INVERS [29.891253]
Recovery Rate (WBCs [1]; 10 pmol/10e6 cells): 47.42%
Recovery Rate (WBCs [1]; 100 pmol/10e6 cells): 73.46% and 41.44% and 62.59% and 71.41%
Recovery Rate (WBCs [1]; 1 nmol/10e6 cells): 96.84% and 72.13% and 79.02% and 86.21%
Recovery Rate (WBCs [1]; 10 nmol/10e6 cells): 102.36%
Recovery Rate (white blood cells (WBCs); [3]): 41.44%
cells counted per well (white blood cells (WBCs); [3]): 105061 and 128195 and 139678
Recovery Rate (white blood cells (WBCs); [4]): 72.13%
cells counted per well (white blood cells (WBCs); [5]): 218861 and 221471 and 208802
Mean (cells counted per well) (white blood cells (WBCs); [6]): 187757.67
Recovery Rate (white blood cells (WBCs); [6]): 62.59%
cells counted per well (white blood cells (WBCs); [7]): 178919 and 197130 and 187224
Mean (cells counted per well) (white blood cells (WBCs); [8]): 237052.33
Recovery Rate (white blood cells (WBCs); [8]): 79.02%
cells counted per well (white blood cells (WBCs); [9]): 239105 and 240632 and 231420

5′-Cholesteryl-TEG-PEG2000-Fluos-3′ [29.891132]
Labelling (staining/uptake) of cells (Epithelial cells): ✓
Labelling (staining/uptake) of cells (MDA-MB468): ✓
Labelling (staining/uptake) of cells (U937): ✓
Labelling (staining/uptake) of cells (WBCs [2]): ✓ not all

5′-CholesterylTEG-CholesterylTEG-(SpacerC18)7-Fluos-BiotinTEG-3′ [29.891222]
WBC recovery rate after centrifugation, different experimenters, dependence on concentration (WBC; Centrifugation: 10 min): the higher the molecule concentration, the higher the cell recovery rate after centrifugation
WBC recovery rate after centrifugation at different points of time, dependence on concentration (WBC; Centrifugation: 10 min): The higher the molecule concentration, the higher the cell recovery rate after centrifugation
cell stabilization, dependence on experimenter (WBC; Experimenters 1, 2 and 3, 10 min): cell stabilization is independent on the experimenter

5′-CholesterylTEG-CholesterylTEG-PEG2000-BiotinTEG-3′ [29.891137]
Recovery Rate (WBCs [1]; WBCs, concentration not given): 77.1%

5′-CholesterylTEG-SpacerC12-CholesterylTEG-(SpacerC18)7-Fluos-BiotinTEG-3 [29.891224]
Recovery Rate (WBCs [1]; WBCs, 350 pmol/10e6 cells): 119.4% and 60.6% and 64.4% and 70.3% and 78.1%

5′-CholesterylTEG-SpacerC18-CholesterylTEG-(SpacerC18)7-Fluos-BiotinTEG-3′ [29.891225]
Recovery Rate (WBCs [1]; WBCs, 350 pmol/10e6 cells): 38.8% and 46.5%

5′-Myristic acid-CholesterylTEG-(SpacerC18)7-Fluos-BiotinTEG-3′ [29.891227]
Recovery Rate (WBCs [1]; WBCs, 350 pmol/10e6 cells): 64.9% and 69.6% and 77.8%

5′-Myristic acid-Myristic acid-(SpacerC18)7-Fluos-BiotinTEG-3′ [29.891214]
Recovery Rate (WBCs [1]; WBCs, 350 pmol/10e6 cells): 78.9% and 68.7% and 90.5% and 81.1% and 65.9% and 84.9% and 85.1%
Recovery rate treated cells (SA-plate) (WBCs [1]; [10]): 78.9%

5′-Myristic acid-Myristic acid-Myristic acid-(SpacerC18)7-Fluos-BiotinTEG-3′ [29.891221]
Recovery Rate (WBCs [1]; WBCs, 350 pmol/10e6 cells): 46.0% and 79.4% and 68.8% and 76.5% and 83.4%

5′-Myristic acid-Myristic acid-PEG2000-Fluos-BiotinTEG-3′ [29.891194]
Recovery Rate (WBCs [1]; WBCs, 350 pmol/10e6 cells): 21-26%

5′-Myristic acid-Myristic acid-SpacerC18-Fluos-BiotinTEG-3′ [29.891213]
Recovery Rate (WBCs [1]; WBCs, 350 pmol/10e6 cells): 67.4% and 61.9% and 80.2% and 70.4%
Recovery rate treated cells (SA-plate) (WBCs [1]; [10]): 67.4%

5′-Myristic acid-SpacerC9-Myristic acid-(SpacerC18)7-Fluos-BiotinTEG-3′ [29.891218]
Recovery Rate (WBCs [1]; WBCs, 350 pmol/10e6 cells): 50.3% and 55.1%

5′-Myristic acid-SpacerC9-Myristic acid-PEG2000-Fluos-BiotinTEG-3′ [29.891197]
staining (WBCs [2]; remark in the Recovery Rate column): not good

5′-Myristic acid-SpacerC12-Myristic acid-(SpacerC18)7-Fluos-BiotinTEG-3 [29.891219]
Recovery Rate (WBCs [1]; WBCs, 350 pmol/10e6 cells): 46.3% and 39.4% and 53.7% and 56.6%

5′-Myristic acid-SpacerC18-Myristic acid-(SpacerC18)7-Fluos-BiotinTEG-3′ [29.891220]
Recovery Rate (WBCs [1]; WBCs, 350 pmol/10e6 cells): 35.8% and 41.4% and 55.9% and 63.5%

5′-alphaTocopherolTEG-PEG2000-Fluos-3′ [29.891131]
Labelling (staining/uptake) of cells (Epithelial cells): ✓
Labelling (staining/uptake) of cells (MDA-MB468): ✓
Labelling (staining/uptake) of cells (U937): ✓
Labelling (staining/uptake) of cells (WBCs [2]): ✓ not all

CCCCCCCCCCCCCCCCCCCCCCN1/C(=C/C=C/c2oc3ccccc3[n+]2CCC)Oc2ccccc21.[I-] [PKH2]
Labelling (staining/uptake) of cells (Epithelial cells): ✓ not all

CCCCCCCCCCCCCCCC(=O)OC[C@H](COP(=O)(O)OCCNC(=O)CCc1ccc2n1[B-](F)(F)[N+]1=C(C)C=C(C)C1=C2)OC(=O)CCCCCCCCCCCCCCC.CCN(CC)CC [Phosphatidylethanolamine, N-(4,4-difluoro-5,7-dimethyl-4-bora-3a,4a-diaza-s-indacene-3-propionyl)-1,2-dihexadecanoyl-sn-glycero-3-phosphoethanolamine, triethylammonium salt]
Labelling (staining/uptake) of cells (Hela): x/✓ very weak

Biotin-PEG-Lys-(C14)2 [15.260268]
Recovery Rate (WBCs [1]; 1.77 nmol/10e6 Cells): 85.72
Recovery rate treated cells (SA-plate) (WBCs [1]; 2.16 μg/2 × 10e6 WBCs): 39.6%
Recovery rate treated cells (SA-plate) (WBCs [1]; 21.6 μg/2 × 10e6 WBCs): 46.7%
Recovery rate treated cells (SA-plate) (WBCs [1]; 216 μg/2 × 10e6 WBCs): 51.8%
Recovery Rate (WBCs [1]; WBCs, concentration not given): 52-86%

Biotin-PEG-Lysin-(C18)2 [listing 1 of 2 here]
enables cell immobilization within (WBC; Centrifugation: 10 min): ≤ 3.5 h
WBC recovery rate after centrifugation at different points of time, dependence on concentration (WBC; Centrifugation: 10 min): The higher the molecule concentration, the higher the cell recovery rate after centrifugation

Biotin-PEG-Lysin-(C18)2 [listing 2 of 2 here]
Recovery Rate (WBCs [1]; 10 pmol/10e6 cells): 4.8%
Recovery Rate (WBCs [1]; 100 pmol/10e6 cells): 6.8%
Recovery Rate (WBCs [1]; 1 nmol/10e6 cells): 21.8% and 29.6%
Recovery Rate (WBCs [1]; 10 nmol/10e6 cells): 60.6% and 43.0% and 68.5%
Recovery Rate (WBCs [1]; WBCs, 350 pmol/10e6 cells, 0.00003% Tween22): 15.0%
Recovery Rate (WBCs [1]; WBCs, 350 pmol/10e6 cells, 0.0001% Tween21): 10.0%
Recovery Rate (WBCs [1]; WBCs, 350 pmol/10e6 cells, 0.0003% Tween20): 10.0%
Recovery Rate (WBCs [1]; WBCs, 350 pmol/10e6 cells, 0.001% Tween20): 9.0%
Recovery Rate (WBCs [1]; WBCs, 0.5 nmol/10e6 cells): 25.0% and 27.0% and 38.0%
Recovery Rate (WBCs [1]; WBCs, 50 nmol/10e6 cells): 69.0%

Biotin-PEG-Lysin-(C18)2 [HH1749]
WBC recovery rate after centrifugation, dependence on concentration (WBC; Centrifugation: 10 min): The higher the concentration of the molecule, the higher the cell recovery rate after centrifugation

Biotin-PEG-Lysin-(C18)2 [HH1750]
WBC recovery rate after centrifugation, dependence on concentration (WBC; Centrifugation: 10 min): The higher the concentration of the molecule, the higher the cell recovery rate after centrifugation

Biotin-PEG-Lysin-(C18)2 [HH1755]
WBC recovery rate after centrifugation, dependence on concentration (WBC; Centrifugation: 10 min): The higher the concentration of the molecule, the higher the cell recovery rate after centrifugation

Sulfo-JA133-phenylboronic acid [15.000078]
Labelling (staining/uptake) of cells (Epithelial cells): ✓
Labelling (staining/uptake) of cells (WBCs [2]): ✓ not all
